Legend:
[1] = Aeration of suspension mixes, height of the foam in the mixing vessel; format: physicochemical; conditions: for Foam Height: 0% mix: 5 mm
Description: (§1) The effectiveness of chemical compounds comprising terpene and/or terpinol at minimizing aeration can be determined in part by measuring the particle size of the hydrophobic coated Ibuprofen in pharmaceutical suspension over time. If the chemical compound is effective, the aeration of the suspension will be adequately low and the particle size of the hydrophobic coated Ibuprofen will remain constant or decrease very little over time. If ineffective, the aeration of the suspension will be higher than desired and the particle size of the hydrophobic coated Ibuprofen can decrease more substantially over time. The extent of aeration of the suspension is assessed by measurement of height of the foam in the mixing vessel. The particle size of the functionally-coated particles can be measured using laser diffraction, a particle analyzer such as a Malvern Mastersizer, or any other suitable means for analyzing fine particles. Example 7: A series of suspension mixes were manufactured by mixing the coated Ibuprofen in the matrix solution/suspension containing various levels of limonene, orange flavor, and strawberry flavor. The height of the foam from these suspension is summarized in Table 7, 8, and 9 respectively.

[2] = Particle size of hydrophobic coated Ibuprofen in suspension with liquid flavor or limonene; format: physicochemical; conditions: 0.25% w/w versus 0.45% w/w and 0.75% w/w, 24 hours
Description: as §1, with “particles.” for “particles. Example 7: A series of suspension mixes were manufactured by mixing the coated Ibuprofen in the matrix solution/suspension containing various levels of limonene, orange flavor, and strawberry flavor. The height of the foam from these suspension is summarized in Table 7, 8, and 9 respectively.”
Example 8: FIGS. 10, 11, and 12 show the decrease in particle size (d10, d50, and d90, respectively) of hydrophobic coated Ibuprofen in a pharmaceutical suspension comprising various concentrations of liquid orange flavor. A particle size expressed in terms of its d10 means that 10 percent of the particles in a given volume of sample lie below a given particle size. […]

C=C(C)[C@H]1CC=C(C)CC1 [limonene]
Aeration of the suspension ([1]; 0.25% w/w): sufficiently low amount of aeration
Foam Height ([1]; 0.30% w/w in mix with coated Ibuprofen): 1 mm
Foam Height ([1]; 0.6% w/w in mix with coated Ibuprofen): 1 mm
Foam Height ([1]; […] w/w in mix with coated Ibuprofen): 2 mm
Effect on aeration ([1]; level […] w/w and above): minimize the aeration
Effect on the coating (particle size d10, d50, d90) [2]: much less deleterious effect

Reference: patent US11931464B2, “Minimizing agglomeration, aeration, and preserving the coating of pharmaceutical compositions comprising ibuprofen” (Catalent U.K. Swindon Zydis Limited, priority 2019, dated 2024)
